Measurements from ChEMBL document CHEMBL4483862, “Open-source discovery of chemical leads for next-generation chemoprotective antimalarials” (2018).

System: Plasmodium berghei
Assay: Luciferase/luciferin-expressing antifolate-resistant parasites were used to infect a culture of HepG2 cells that were pre-incubated with compounds. Infected hepatocytes emit light due to the luciferase reaction. Assay results are presented as the percent inhibition of light emission compared to control. […]
Type: functional
Conditions: sporozoite; for IC90: read-out: LUCIFERASE INFECTION ASSAY - IC90
[1] = read-out: LUCIFERASE INFECTION ASSAY - IC50

Row | SMILES | IC90 | IC50 [1] | also measured
1 | CN(c1ccccc1)S(=O)(=O)c1ccc(C(=O)Nc2nn3cc(-c4ccccc4)nc3s2)cc1 | > 10 µM | – | IC50 (HEPG2TOX_HILL_SLOPE 0.762, HEPG2TOX_R_SQUARED 0.67, PBLUC_HILL_SLOPE 10.6, PBLUC_R_SQUARED 0.0386, read-out: LUCIFERASE INFECTION ASSAY - IC50): > 10 µM
2 | COc1ccccc1C(=O)Nc1cc(-c2cn3cccnc3n2)ccc1C | > 10 µM | – | IC50 (HEPG2TOX_HILL_SLOPE 18.3, HEPG2TOX_R_SQUARED 0.752, PBLUC_HILL_SLOPE 13.2, PBLUC_R_SQUARED 0.331, read-out: LUCIFERASE INFECTION ASSAY - IC50): 9.08 µM
3 | CC1(C)C=Cc2cc(/C(N)=N/OC(=O)c3ccccc3)ccc2O1 | 0.211 µM | – | IC50 (FFLUC_HILL_SLOPE 1.86, FFLUC_R_SQUARED 0.604, PBLUC_HILL_SLOPE 0.872, PBLUC_R_SQUARED 0.782, read-out: LUCIFERASE INFECTION ASSAY - IC50): 0.0169 µM
4 | CON(C)S(=O)(=O)c1ccc(NC(=O)COc2cccc(C(C)(C)C)c2)cc1 | > 10 µM | > 10 µM | –
5 | O=C(Cn1ncc(Cl)c(Cl)c1=O)Nc1ccc(OCc2ccccc2)cc1 | > 10 µM | > 10 µM | –
6 | CC(=O)c1ccc(-c2cnc(N)c(-c3cccc(N(C)C)c3)c2)s1 | 4.08 µM | – | IC50 (HEPG2TOX_HILL_SLOPE 12.1, HEPG2TOX_R_SQUARED 0.413, PBLUC_HILL_SLOPE 8.96, PBLUC_R_SQUARED 0.727, read-out: LUCIFERASE INFECTION ASSAY - IC50): 3.19 µM
7 | CCc1ccc(C(=O)C(C)Sc2ccc(S(=O)(=O)N3CCOCC3)cn2)cc1 (stereo unspecified) | > 10 µM | > 10 µM | –
8 | CNc1nc2cnc(Nc3cc(OC)cc(C(F)(F)F)c3)cc2n1Cc1ccco1 | > 10 µM | > 10 µM | –
9 | O=C(Nc1nc2ccccc2[nH]1)c1ccc(S(=O)(=O)N2CCc3ccccc3C2)cc1 | > 10 µM | – | IC50 (FFLUC_HILL_SLOPE 9.27, FFLUC_R_SQUARED 0.301, PBLUC_HILL_SLOPE 0.89, PBLUC_R_SQUARED 0.688, read-out: LUCIFERASE INFECTION ASSAY - IC50): 4.81 µM
10 | CCOc1ccc(S(=O)(=O)CC2=NCCc3cc(OC)c(OC)cc32)cc1 | 5.39 µM | – | IC50 (HEPG2TOX_HILL_SLOPE 1.55, HEPG2TOX_R_SQUARED 0.854, PBLUC_HILL_SLOPE 1.98, PBLUC_R_SQUARED 0.428, read-out: LUCIFERASE INFECTION ASSAY - IC50): 1.78 µM
11 | CC(C)C(Nc1ccc(S(=O)(=O)N2CCOCC2)cc1[N+](=O)[O-])c1nc2ccccc2[nH]1 (stereo unspecified) | > 10 µM | 9.46 µM | –
12 | Cc1ccc(-n2c(=O)c3ccccc3n3c(SCc4nnnn4C4CC4)nnc23)c(C)c1 | > 10 µM | > 10 µM | –
13 | Cc1nn(C(=O)Nc2cccc(C(F)(F)F)c2)c(C)c1Sc1ccc(C(F)(F)F)cn1 | > 7.17 µM | – | IC50 (HEPG2TOX_HILL_SLOPE 21.1, HEPG2TOX_R_SQUARED 0.715, PBLUC_HILL_SLOPE 11, PBLUC_R_SQUARED 0.14, read-out: LUCIFERASE INFECTION ASSAY - IC50): 6.09 µM
14 | CC(C)c1ccc(NC(=O)N2Cc3cnc(Nc4ccc(OCCN5CCCC5)cc4)nc3C2)cc1 | > 6.78 µM | > 6.78 µM | –
15 | S=c1[nH]c2ccccc2n1C1CCCCC1 | > 10 µM | > 10 µM | –
16 | Cn1ccc2cc(-c3cnc4cnc(-c5ccccc5CO)cn34)ccc21 | 0.0193 µM | – | –
17 | O=C(COc1ccc(Oc2ccccc2)cc1)NCc1cn2ccccc2n1 | 1.77 µM | – | IC50 (HEPG2TOX_HILL_SLOPE 0.752, HEPG2TOX_R_SQUARED 0.901, PBLUC_HILL_SLOPE 2.64, PBLUC_R_SQUARED 0.419, read-out: LUCIFERASE INFECTION ASSAY - IC50): 0.772 µM
18 | O=C(COc1ccc(F)cc1)N1CCC(Cc2ccccc2)CC1 | > 10.1 µM | – | IC50 (PBLUC_HILL_SLOPE 1.27, PBLUC_R_SQUARED 0.405, read-out: LUCIFERASE INFECTION ASSAY - IC50): 4.23 µM
19 | Cc1ccc(Nc2cc(C(C)C)c(OS(=O)(=O)c3ccc(C)cc3)c(C(C)C)c2)cc1 | 9.61 µM | – | IC50 (HEPG2TOX_HILL_SLOPE 1.43, HEPG2TOX_R_SQUARED 0.724, PBLUC_HILL_SLOPE 19.9, PBLUC_R_SQUARED 0.613, read-out: LUCIFERASE INFECTION ASSAY - IC50): 8.6 µM
20 | COc1cc(-c2ccc(N3CCN(c4ccncc4)CC3)nc2)cc(OC)c1OC | > 8.12 µM | – | IC50 (HEPG2TOX_HILL_SLOPE 1.45, HEPG2TOX_R_SQUARED 0.424, PBLUC_HILL_SLOPE 3.58, PBLUC_R_SQUARED 0.452, read-out: LUCIFERASE INFECTION ASSAY - IC50): 6.09 µM
21 | c1cc(NCCN2CCOCC2)ncc1-c1cn2c(-c3ccc4c(c3)OCO4)cnc2cn1 | > 7.42 µM | > 7.42 µM | –
22 | COc1ccc(O)c(C=C(c2nc3ccccc3s2)c2nc3ccccc3s2)c1 | > 10 µM | – | IC50 (FFLUC_HILL_SLOPE 21.2, FFLUC_R_SQUARED 0.491, read-out: LUCIFERASE INFECTION ASSAY - IC50): > 10 µM
23 | CC(C)(C)C(=O)N1CCC(C(=O)N(Cc2ccccc2)c2nc3c(s2)CCCC3)CC1 | > 10 µM | > 10 µM | –

Row | SMILES | IC90 | IC50 [1] | also measured
24 | FC(F)(F)c1cccc(Nc2cc3[nH]c(-c4ccccn4)cc3cn2)c1 | > 10 µM | – | IC50 (HEPG2TOX_HILL_SLOPE 12.3, HEPG2TOX_R_SQUARED 0.757, PBLUC_HILL_SLOPE 15.4, PBLUC_R_SQUARED 0.209, read-out: LUCIFERASE INFECTION ASSAY - IC50): 9.04 µM
25 | Cc1ccccc1-n1nnc(C(=O)Nc2cccc(Br)c2)c1N | 4.24 µM | – | IC50 (PBLUC_HILL_SLOPE 0.945, PBLUC_R_SQUARED 0.824, read-out: LUCIFERASE INFECTION ASSAY - IC50): 0.414 µM
26 | CCOc1cc(C(=O)NCCNC(=O)C(C)C)cc(OCC)c1OCC | > 10 µM | > 10 µM | –
27 | COc1ccc(-c2nc(NC(=O)CCc3ccc4c(c3)OCO4)sc2C)cc1 | > 10 µM | – | IC50 (PBLUC_HILL_SLOPE 15.2, PBLUC_R_SQUARED 0.468, read-out: LUCIFERASE INFECTION ASSAY - IC50): 8.95 µM
28 | CCNC(=O)N1CCc2nc(Nc3cc(Cl)cc(Cl)c3)ncc2C1 | > 9.01 µM | > 9.01 µM | –
29 | Cc1noc(/C=C/c2cc(C(F)(F)F)cc(C(F)(F)F)c2)c1[N+](=O)[O-] | > 9.01 µM | > 9.01 µM | –
30 | CNc1snc(C)c1C(=O)Nc1ccc(OC)c(Cc2ccccc2)c1 | 1.1 µM | – | IC50 (PBLUC_HILL_SLOPE 16.3, PBLUC_R_SQUARED 0.619, read-out: LUCIFERASE INFECTION ASSAY - IC50): 0.961 µM
31 | O=C(CSc1nnc(-c2c[nH]c3ccccc23)n1C1CC1)NC1CCN(Cc2ccccc2)C1 (stereo unspecified) | 8.82 µM | – | IC50 (PBLUC_HILL_SLOPE 3.03, PBLUC_R_SQUARED 0.422, read-out: LUCIFERASE INFECTION ASSAY - IC50): 4.27 µM
32 | Clc1ccc(-c2cnc3cnc(-c4cccs4)cn23)cc1 | 3.99 µM | – | IC50 (PBLUC_HILL_SLOPE 17.9, PBLUC_R_SQUARED 0.612, read-out: LUCIFERASE INFECTION ASSAY - IC50): 3.53 µM
33 | CN(C)S(=O)(=O)c1ccc(NC(=O)COc2ccc(Oc3ccc(C(F)(F)F)cn3)cc2)cc1 | > 10 µM | > 10 µM | –
34 | NC(c1ccccc1)c1csc(Nc2ccc(-c3ccccc3)nn2)n1 (stereo unspecified) | 3.73 µM | – | IC50 (PBLUC_HILL_SLOPE 11.1, PBLUC_R_SQUARED 0.371, read-out: LUCIFERASE INFECTION ASSAY - IC50): 3.06 µM
35 | CN1c2ccsc2C(=O)/C(=C/Nc2cccc(Cl)c2)S1(=O)=O | > 9.3 µM | > 9.3 µM | –
36 | CC(=O)N1CCN(C(=O)CCC(=O)Nc2nc3ccccc3s2)CC1 | > 10 µM | – | IC50 (PBLUC_HILL_SLOPE 1.05, PBLUC_R_SQUARED 0.239, read-out: LUCIFERASE INFECTION ASSAY - IC50): > 10 µM
37 | CCSc1ccc(-c2cc(NC=O)c3ncc(-c4cccc(C(=O)NCCN(C)C)c4)n3c2)cc1 | > 6.77 µM | > 6.77 µM | –
38 | Cc1ccc(-c2nc(CSc3nc(C)c(C)n3CC3CCCO3)co2)c(C)c1 (stereo unspecified) | > 10 µM | – | IC50 (FFLUC_HILL_SLOPE 1.24, FFLUC_R_SQUARED 0.0904, HEPG2TOX_HILL_SLOPE 3.11, HEPG2TOX_R_SQUARED 0.82, read-out: LUCIFERASE INFECTION ASSAY - IC50): > 10 µM
39 | FC(F)(F)c1ccccc1N/N=C/c1ccc(OCc2ccccc2)c(OCc2ccccc2)c1 | > 10 µM | – | IC50 (FFLUC_HILL_SLOPE 10.4, FFLUC_R_SQUARED 0.371, read-out: LUCIFERASE INFECTION ASSAY - IC50): > 10 µM
40 | OC(c1ccccc1)c1cccs1 (stereo unspecified) | > 17.3 µM | > 17.3 µM | –
41 | CCNC(=O)C1CCCN(Cc2cc(C(F)(F)F)ccc2Cl)CC1 (stereo unspecified) | 3.4 µM | – | IC50 (PBLUC_HILL_SLOPE 383, PBLUC_R_SQUARED 0.415, read-out: LUCIFERASE INFECTION ASSAY - IC50): 3.38 µM
42 | Cc1cn2nc(N(C)Cc3ccc(N(C)C)cc3)sc2n1 | > 10 µM | – | IC50 (HEPG2TOX_HILL_SLOPE 9.75, HEPG2TOX_R_SQUARED 0.561, PBLUC_HILL_SLOPE 7.25, PBLUC_R_SQUARED 0.0375, read-out: LUCIFERASE INFECTION ASSAY - IC50): 7.97 µM
43 | CCc1ccc(NC(=O)c2ccc(S(=O)(=O)N(C)C)cc2)cc1 | > 9.93 µM | – | IC50 (HEPG2TOX_HILL_SLOPE 5.62, HEPG2TOX_R_SQUARED 0.338, PBLUC_HILL_SLOPE 17.2, PBLUC_R_SQUARED 0.289, read-out: LUCIFERASE INFECTION ASSAY - IC50): 9.7 µM
44 | O=C(NC1CCN(c2nccc(C(F)(F)F)n2)CC1)c1cccs1 | 4.85 µM | – | IC50 (PBLUC_HILL_SLOPE 2.13, PBLUC_R_SQUARED 0.731, read-out: LUCIFERASE INFECTION ASSAY - IC50): 1.72 µM
45 | O=C(COC(=O)c1cc(-c2ccc(OC(F)F)cc2)nc2ccccc12)Nc1nnc(-c2ccccc2)o1 | > 10 µM | > 10 µM | –
46 | Cc1ccc(Nc2nc(N)nc(CN(C)Cc3nc(=O)c4ccccc4[nH]3)n2)cc1 | 8.22 µM | – | IC50 (PBLUC_HILL_SLOPE 2.75, PBLUC_R_SQUARED 0.503, read-out: LUCIFERASE INFECTION ASSAY - IC50): 3.7 µM
